Reference: paper PMC7037610, “Novel Cationic Prodrug of Ubiquinol-10 Enhances Intestinal Absorption via Efficient Formation of Nanosized Mixed-Micelles with Bile Acid Anions” (Molecules, 2020)
Several values for one entry are separate records, joined by “and”; a condition that tells them apart may be missing. Equal values may be shown once. Where a name gives a salt, the structure may show the parent alone. Marks after values point to notes of the source that are not given here.

What was measured:
[1] = design: method as in Japanese Pharmacopoeia monograph; conditions: ref Japanese Pharmacopoeia monograph, cited from earlier work
[2] = Enzymatic hydrolysis of UqH-derivatives in rat liver microsomes; assay type: in vitro ADME; conditions: for Km / Vmax: pH 7.4, 37 °C
Method: (§1) The hydrolysis of esters was analyzed at 37 °C in phosphate buffered saline (PBS) containing commercially available rat or human liver microsomes (In Vitro Technologies, Inc., Baltimore, MD, USA). The microsomes (20 mg/mL) were adjusted to a protein concentration of 2 mg/mL and were preincubated at 37 °C for 5 min before adding the esters.
Stock solutions of esters were prepared in ethanol. The enzymatic reactions were initiated by adding 10 µL ester stock solution (final concentration 0.1–0.4 mM) and 50 μL PBS to 940 µL of preheated reaction medium containing rat or human liver microsomes in amber test tubes. These reactions were incubated at 37 °C and, at various times, 100 μL aliquots were removed and mixed with 100 µL 10% trichloroacetic acid. Samples were then vortex mixed for 2 min and 800 µL ethyl acetate was added, with vortex mixing for 5 min. The samples were centrifuged at 1250× g for 10 min. The 20 µL organic layer was analyzed by the HPLC system described in Section 3.9.1. The initial hydrolytic rate (mM UqH-10 formed per min) was calculated from the initial slope of a plot of UqH-10 concentration versus time.
(§2) The Shimadzu HPLC system (Shimadzu, Kyoto, Japan) consisted of a pump (LC-10AD), an autoinjector (SIL-10ADvp), a UV detector (SPD-10Avp), and a column oven (CTO-10Avp). The eluent was monitored spectrophotometrically at 280 nm. Compounds were analyzed on a YMC-Pack C8 reversed-phase column (φ 4.6 × 250 mm, YMC Co., Ltd., Kyoto, Japan) protected by a µBondapak C18 Guard-Pak (Waters Co., Milford, MA, USA) with a degassed mobile phase of methanol and 2-propanol (850/150, v/v) at 0.8 mL/min. UqH-10 and Uq-10 were quantified using linear calibration curves of peak areas versus concentrations. UqH-10 was partly oxidized during the preparation procedure. Therefore, the sum of UqH-10 and Uq-10 represented total UqH-10. Retention times were: UqH-10, 11.6 min; UqH-ester derivatives, 13.2 min and Uq-10, 15.4 min.

Water solubility = assay type: physicochemical; conditions: in water
Method: The aqueous solubility of each ester was determined by adding 20 μmol of each compound to 1 mL distilled water in amber test tubes and incubating the tubes at 25 ± 1 °C in a constant-temperature water bath. The test tubes were shaken for 24 h and the suspensions were centrifuged at 1250× g for 10 min. The supernatants were diluted 10-fold with distilled water and assayed by the HPLC method described in Section 3.9.1.
as §2

[3] = Mixed-micellization with taurocholic acid (appearance of mixtures); assay type: physicochemical
Method: (§3) A solution of 20 mM UqH-DMG was prepared in distilled water and incubated at 36.5 °C until the solution was translucent. The solution was combined with 10 mM TCA aqueous solution in the final molar ratios of 1:0.5–10 UqH-DMG:TCA.

[4] = Enzymatic hydrolysis of UqH-derivatives in human liver microsomes; assay type: in vitro ADME; conditions: pH 7.4, 37 °C, Michaelis–Menten fit
Method: as §1
Stock solutions of esters were prepared in ethanol. The enzymatic reactions were initiated by adding 10 µL ester stock solution (final concentration 0.1–0.4 mM) and 50 μL PBS to 940 µL of preheated reaction medium containing rat or human liver microsomes in amber test tubes. […] The 20 µL organic layer was analyzed by the HPLC system described in Section 3.9.1. The initial hydrolytic rate (mM UqH-10 formed per min) was calculated from the initial slope of a plot of UqH-10 concentration versus time.
The Shimadzu HPLC system (Shimadzu, Kyoto, Japan) consisted of a pump (LC-10AD), an autoinjector (SIL-10ADvp), a UV detector (SPD-10Avp), and a column oven (CTO-10Avp). The eluent was monitored spectrophotometrically at 280 nm. Compounds were analyzed on a YMC-Pack C8 reversed-phase column (φ 4.6 × 250 mm, YMC Co., Ltd., Kyoto, Japan) protected by a µBondapak C18 Guard-Pak (Waters Co., Milford, MA, USA) with a degassed mobile phase of methanol and 2-propanol (850/150, v/v) at 0.8 mL/min. […]

[5] = Micellization of UqH-DMG in water (visual inspection, solubilizing point vs temperature); assay type: physicochemical; conditions: for Appearance of solution: 45 mM in water
Method: UqH-DMG was diluted to intended concentrations with milliQ water in glass tubes. The test tubes were incubated in a water bath equipped with a thermometer. The solution appearance was visually inspected and the solubilizing points were plotted on a concentration versus incubation temperature curve.

[6] = Particle size by dynamic light scattering (Zetasizer Nano ZS); assay type: physicochemical; conditions: mean ± SD
Method: as §3
The Z-average of diameters of the particles of aqueous solution of UqH-DMG prepared in a polystyrene cuvette in Section 3.7.1. above were determined by a Zetasizer Nano ZS (MALVERN, Worcestershire, UK). The measurements were performed three independent times for each sample.

[7] = test system: esterases in human liver microsomes; assay: Effect of eserine on UqH-4-DMG hydrolysis in human liver microsomes; assay type: biochemical; conditions: eserine 0–2.0 mM
Method: (§4) Effects of eserine on UqH-4-DMG hydrolysis in liver microsomes was also examined, using similar methods, with 50 µL eserine aqueous solution added, instead of PBS, to the mixtures with liver microsomes. Eserine was tested at 0–2.0 mM.

[8] = test system: esterases in rat liver microsomes; assay: Effect of eserine on UqH-4-DMG hydrolysis in rat liver microsomes; assay type: biochemical; conditions: eserine 0–2.0 mM
Method: as §4

[9] = calculated using generated UqH-10 levels after sequential hydrolysis

Compound: COc1c(OC(=O)CN(C)C)c(C)c(C/C=C(\C)CC/C=C(\C)CC/C=C(\C)CC/C=C(\C)CC/C=C(\C)CC/C=C(\C)CC/C=C(\C)CC/C=C(\C)CC/C=C(\C)CCC=C(C)C)c(OC(=O)CN(C)C)c1OC (as salt: hydrochloride) [UqH-DMG, 2,3-dimethoxy-5-methyl-6-decaprenyl-benzene-1,4-bis-N,N–dimethyl glycinate]
- melting point: 179 to 181 °C

Compound: COC1=C(OC)C(=O)C(C/C=C(\C)CC/C=C(\C)CC/C=C(\C)CC/C=C(\C)CC/C=C(\C)CC/C=C(\C)CC/C=C(\C)CC/C=C(\C)CC/C=C(\C)CCC=C(C)C)=C(C)C1=O [Uq-10, Ubiquinone-10]
- Water solubility ([1]; even when diluted to this concentration): < 116 µM
- Water solubility descriptor [1]: practically insoluble, or insoluble

Compound: COc1c(O)c(C)c(C/C=C(\C)CC/C=C(\C)CC/C=C(\C)CC/C=C(\C)CC/C=C(\C)CC/C=C(\C)CC/C=C(\C)CC/C=C(\C)CC/C=C(\C)CCC=C(C)C)c(OC(=O)CN(C)C)c1OC [UqH-1-DMG]
- Km ([2]; Michaelis–Menten fit): 4630 µM
- Vmax ([2]; Michaelis–Menten fit): 8.21e-07 M/min
- Water solubility compared with UqH bis-ester (UqH-DMG) (Water solubility): lower

Compound: COc1c(O)c(C/C=C(\C)CC/C=C(\C)CC/C=C(\C)CC/C=C(\C)CC/C=C(\C)CC/C=C(\C)CC/C=C(\C)CC/C=C(\C)CC/C=C(\C)CCC=C(C)C)c(C)c(OC(=O)CN(C)C)c1OC [UqH-4-DMG]
- Solubilization with taurocholic acid ([3]; 10-times molar-equivalents taurocholic acid): solubilized
- Km [4]: 72.2 µM
- Vmax [4]: 1.23e-07 M/min
- Vmax/Km relative to UqH-1-DMG [2]: 8.9 fold
- Km ([2]; Michaelis–Menten fit): 75.1 µM
- Vmax ([2]; Michaelis–Menten fit): 1.19e-07 M/min
- Water solubility compared with UqH bis-ester (UqH-DMG) (Water solubility): lower

Compound: COc1c(OC(=O)CN(C)C)c(C)c(C/C=C(\C)CC/C=C(\C)CC/C=C(\C)CC/C=C(\C)CC/C=C(\C)CC/C=C(\C)CC/C=C(\C)CC/C=C(\C)CC/C=C(\C)CCC=C(C)C)c(OC(=O)CN(C)C)c1OC [UqH-DMG, 2,3-dimethoxy-5-methyl-6-decaprenyl-benzene-1,4-bis-N,N–dimethyl glycinate]
- Appearance of mixture with taurocholic acid ([3]; UqH-DMG:TCA molar ratio 1:0.5): slightly cloudy
- Appearance of mixture with taurocholic acid ([3]; UqH-DMG:TCA molar ratios 1:1 to 1:10): transparent
- Appearance of solution ([5]; 27.0 °C): opaque
- Appearance of solution ([5]; 36.5 °C): transparent
- Krafft's point ([5]; in water): around 36.5 °C
- Z-average particle diameter ([6]; 20 mM in water, without TCA, prepared at 36.5 °C): 20.38 ± 0.14 nm and 20 nm
- Z-average particle diameter ([6]; UqH-DMG:TCA mixture at 1:1 molar ratio): 5.183 ± 0.033 nm and 5 nm
- Km [2, 9]: 3890 µM
- Vmax [2, 9]: 0.603 ^a ×10^−6 M·min^−1
- solubility at 24 h (Water solubility; distilled water, read-out: Water solubility (transparent solution in water at concentrations up to)): ≤ 5000 µM

Compound: CNC(=O)Oc1ccc2c(c1)[C@]1(C)CCN(C)[C@@H]1N2C [eserine, physostigmine sulfate]
- Effect on UqH-4-DMG hydrolysis [7]: inhibited
- Effect on UqH-4-DMG hydrolysis [8]: inhibited
